Experimental data published in the CheMixHub viscosity set.

Test: xn = mol fraction of the nth substance listed

CC(=O)N(C)C + CCCO
viscosity [mPa·s]
Conditions	298.15 K	303.15 K	313.15 K
100 kPa, x1 = 0.0535	1.767	–	1.29
100 kPa, x1 = 0.1052	1.618	–	1.206
100 kPa, x1 = 0.2053	1.423	–	1.093
100 kPa, x1 = 0.3066	1.285	–	1.008
100 kPa, x1 = 0.407	1.197	–	0.948
100 kPa, x1 = 0.5061	1.143	–	0.904
100 kPa, x1 = 0.5984	1.097	–	0.8744
100 kPa, x1 = 0.701	1.045	–	0.8402
100 kPa, x1 = 0.8014	0.9977	–	0.8138
100 kPa, x1 = 0.9025	0.9648	–	0.7886
100 kPa, x1 = 0.9583	0.944	–	0.7749
101 kPa, x1 = 0.0966	–	1.47	–
101 kPa, x1 = 0.1975	–	1.293	–
101 kPa, x1 = 0.2992	–	1.193	–
101 kPa, x1 = 0.3986	–	1.103	–
101 kPa, x1 = 0.4894	–	1.048	–
101 kPa, x1 = 0.6025	–	1	–
101 kPa, x1 = 0.697	–	0.963	–
101 kPa, x1 = 0.7955	–	0.93	–
101 kPa, x1 = 0.9012	–	0.898	–

CCCCCCCCCO + CCCO
viscosity [mPa·s], 101 kPa
Conditions	298.15 K	308.15 K	318.15 K
x2 = 0.05	8.682	6.217	4.482
x2 = 0.1	8.263	5.92	4.293
x2 = 0.15	7.846	5.632	4.11
x2 = 0.2	7.432	5.351	3.929
x2 = 0.25	7.022	5.076	3.752
x2 = 0.3	6.618	4.806	3.575
x2 = 0.35	6.22	4.542	3.399
x2 = 0.4	5.83	4.282	3.223
x2 = 0.45	5.447	4.026	3.046
x2 = 0.5	5.073	3.774	2.869
x2 = 0.55	4.708	3.525	2.691
x2 = 0.6	4.352	3.279	2.514
x2 = 0.65	4.005	3.037	2.337
x2 = 0.7	3.668	2.798	2.161
x2 = 0.75	3.34	2.563	1.988
x2 = 0.8	3.022	2.332	1.819
x2 = 0.85	2.712	2.106	1.656
x2 = 0.9	2.412	1.884	1.5
x2 = 0.95	2.12	1.668	1.354

Cc1cccc2ccccc12 + CC(CC(C)(C)C)CC(C)(C)CC(C)(C)C
viscosity [mPa·s], 100 kPa
Conditions	x1 = 0.125	x1 = 0.25	x1 = 0.375	x1 = 0.5	x1 = 0.625	x1 = 0.75	x1 = 0.875
293.15 K	3.46	3.24	3.09	2.97	2.88	2.9	3.02
303.15 K	2.75	2.61	2.47	2.38	2.32	2.33	2.4
313.15 K	2.29	2.14	2.02	1.95	1.9	1.91	1.97
323.15 K	1.86	1.76	1.7	1.64	1.6	1.61	1.64

CCCCCCCCCO + CCCCCCCCCCO
Conditions	viscosity [mPa·s]
293.15 K, 101.33 kPa, x1 = 0.1193	14.2
293.15 K, 101.33 kPa, x1 = 0.3048	13.76
293.15 K, 101.33 kPa, x1 = 0.5886	12.82
293.15 K, 101.33 kPa, x1 = 0.8745	12.02
298.15 K, 101.33 kPa, x1 = 0.2583	11.34
298.15 K, 101.33 kPa, x1 = 0.6152	10.53
298.15 K, 101.33 kPa, x1 = 0.869	9.852
298.15 K, 101.8 kPa, x1 = 0.9074	9.726
308.15 K, 101.8 kPa, x1 = 0.1082	7.899
308.15 K, 101.8 kPa, x1 = 0.3202	7.632
308.15 K, 101.8 kPa, x1 = 0.7188	7.125
308.15 K, 101.8 kPa, x1 = 0.9074	6.876
318.15 K, 101.8 kPa, x1 = 0.1082	5.649
318.15 K, 101.8 kPa, x1 = 0.3202	5.463
318.15 K, 101.8 kPa, x1 = 0.5233	5.336
318.15 K, 101.8 kPa, x1 = 0.7188	5.124
318.15 K, 101.8 kPa, x1 = 0.9074	4.953

O=[N+]([O-])c1ccccc1O + c1ccc2ncccc2c1
viscosity [mPa·s], 101 kPa
Conditions	303.15 K	313.15 K
x1 = 0.1011	3.361	2.66
x1 = 0.2021	3.772	2.928
x1 = 0.2913	4.125	3.16
x1 = 0.3982	4.495	3.375
x1 = 0.4731	4.68	3.465
x1 = 0.5638	4.72	3.47
x1 = 0.6538	4.595	3.41
x1 = 0.7624	4.355	3.25
x1 = 0.8131	4.22	3.151
x1 = 0.8588	4.09	3.059
x1 = 0.9056	3.95	2.955
x1 = 0.9521	–	2.855

CCC1CCCCC1 + CCCCO
viscosity [mPa·s], 100 kPa
Conditions	x2 = 0.1001	x2 = 0.2	x2 = 0.3001	x2 = 0.4	x2 = 0.4999	x2 = 0.5997	x2 = 0.7	x2 = 0.8	x2 = 0.9
293.15 K	0.867	0.908	0.984	1.1	1.254	1.451	1.718	2.051	2.436
298.15 K	0.813	0.849	0.912	1.007	1.142	1.314	1.549	1.817	2.157
303.15 K	0.758	0.793	0.851	0.929	1.045	1.202	1.399	1.625	1.911
308.15 K	0.716	0.744	0.794	0.861	0.958	1.08	1.25	1.465	1.711
313.15 K	0.666	0.692	0.729	0.791	0.871	0.98	1.121	1.303	1.515
318.15 K	0.628	0.646	0.681	0.734	0.803	0.894	1.018	1.174	1.351
323.15 K	0.584	0.604	0.633	0.678	0.737	0.814	0.924	1.058	1.219
